Test results published in US20240059693A1, “FUSED BICYCLIC PYRAZOLE DERIVATIVES AND METHODS OF USE THEREOF FOR THE TREATMENT OF HERPESVIRUSES” (Merck Sharp & Dohme LLC, priority 2020, published 2024).
Where two headings read alike, the source gives them in different places.

Key:
[1] = molecular target: T1, Human cytomegalovirus DNA polymerase (Human cytomegalovirus, UniProt P08546); assay: HCMV polymerase assay (AlphaLISA); format: biochemical; details: HCMV DNA polymerase 0.2 nM, 60 minutes at 37° C.; read-out: CMV (IC50)
T1 construct: made in house; host or cells: SF21 insect cells (baculovirus vector)
Summary of the method: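 Baculovirus/SF21-expressed polymerase (HCMV 0.2 nM; VZV 0.4 nM) pre-incubated 30 min at room temperature with compound in HEPES pH 7.5 buffer, then 60 min at 37 °C with 1.6 nM DIG-primer/template, sub-nM to 24 nM dNTPs and 0.8 nM biotin-dUTP. AlphaLISA detection; IC50 from 4-parameter fit.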

[2] = system: VZV; assay: Viral qPCR assay, VZV in MeWo cells; format: cell-based, varicella zoster virus; details: ~72 hrs, read-out: VZV MEWO Cell (IC50)
Method: (§1) MRCS cells, Vero cells, and MeWo cells were obtained from ATCC and were maintained at 37° C./5% CO2/90% relative humidity in Minimal Essential Medium with 10% fetal bovine serum, […] L-glutamine, 100 units/ml penicillin and 100 ug/ml streptomycin. Assay plates were prepared by dispensing compounds dissolved in DMSO into wells of 384 well collagen-coated plates using an ECHO acoustic dispenser. Each compound was tested in a 10-point, serial 3-fold dilution. Controls included uninfected cells and infected cells treated only with DMSO. Assays were initiated by mixing selected cells, in suspension, with virus, and dispensing 50 μl/well infected cells to pre-plated compounds. Plates were incubated at 37° C./5% CO2/90% relative humidity for ˜72 hrs to permit genomic replication, and infected cells were lysed by the addition of an equal volume of lysis buffer (10 mM Tris-HCl, pH8, 50 mM KCl, 2 mM MgCl2, 0.45% NP-40, 0.45% Tween-20, and 100 μg/ml proteinase K). An aliquot of the lysate was transferred to a 384-well PCR plate and incubated at 56° C. for 1 hour and then at 95° C. for 10 min. Levels of a viral gene and of the cellular control, PPIA (Thermo Fisher Assay ID=Hs04194521_s1), were measured in separate 10 μL qPCR assays using TaqMan® Gene Expression Master Mix (Applied Biosystems), and an 7900HT Fast Real-Time PCR System with 384-Well Block Module. 7-point, serial 10-fold dilutions of a plasmid standard were run on each plate to generate a standard curve, and genome copies numbers were calculated by plotting experimental Ct onto linear regression of the standard curve. Viral genome copy numbers were normalized by cellular control copy number, and compound effects were normalized to the window defined by the controls. Calculated % effects were fit using a 4-parameter algorithm, and EC50 was reported.
as §1, with “gene” for “gene and of the cellular control, PPIA (Thermo Fisher Assay ID=Hs04194521_s1),”, “in” for “in separate”, “Compound effects on viral” for “Viral”, “number” for “numbers were normalized by cellular control copy number, and compound effects”
(§2) VZV: Strain Street was maintained as an infected cell stock in MRC-5 cells. It was assayed in MeWo or MRCS cells and was used at 0.04-0.1 pfu/cell. The assays were performed in growth medium. Primer-probe set was Thermo Fisher Assay ID=AIPAEXQ. HSV-1: Strain F Street was assayed in Vero or MRCS cells and was used at 0.0005-0.004 pfu/cell in growth medium. Primer-probe set was Thermo Fisher Assay ID=AIBJZIB

[3] = system: HSV2; assay: Viral qPCR assay, HSV2 in Vero cells; format: cell-based, Herpes Simplex Virus type 2; details: read-out: HSV2 VERO Cell (EC50)
Method: as §1
as §1, with “gene” for “gene and of the cellular control, PPIA (Thermo Fisher Assay ID=Hs04194521_s1),”, “in” for “in separate”, “Compound effects on viral” for “Viral”, “number” for “numbers were normalized by cellular control copy number, and compound effects”

[4] = molecular target: T2, varicella zoster virus DNA polymerase (Varicella-zoster virus, UniProt P09252); assay: VZV polymerase assay (AlphaLISA); format: biochemical; details: VZV DNA polymerase 0.4 nM, 60 minutes at 37° C.
T2 construct: made in house; host or cells: SF21 insect cells (baculovirus vector)
Method: Human cytomegalovirus and varicella zoster virus DNA polymerases were expressed via baculovirus vector in SF21 cells and purified. Heterodimeric nucleic acid substrate used in the herpesvirus polymerase reactions was generated by annealing a 59-mer template to a 17-mer digoxigenin-labeled primer. Polymerase (HCMV final concentration of 0.2 nM; VZV final concentration of 0.4 nM) was combined with an inhibitor compound or DMSO in assay buffer (10 mM HEPES, pH 7.5, 25 mM KCl, 25 mM NaCl, 5 mM MgCl2, 5% glycerol, 0.67 mg/ml bovine serum albuminutes, and 1 mM tris(2-carboxyethyl)phosphine), and this mixture was pre-incubated for 30 minutes at room temperature in 384-well microtiter plates. The polymerization reaction was initiated by the addition of template/primer substrate (final concentration: 1.6 nM), and dNTPs (final concentration: 24 nM dCTP, 24 nMdGTP, 16 nM dATP, 16 nM dTTP, and 0.8 nM biotin-dUTP). After 60 minutes incubation at 37° C., reactions were terminated with quench buffer (25 mM HEPES pH 7.5, 100 mM NaCl, 0.25% Tween-20, 12 mM EDTA, and 1 mg/ml bovine serum albumin). Incorporation of biotinylated UTP was detected with 2.5-ug/ml anti-DIG AlphaLISA acceptor beads and 5-10 ug/ml streptavidin AlphaLISA donor beads (Perkin Elmer). Compound effects were normalized to the window defined by the controls (DMSO only and pre-quenched wells) and were fit using a 4-parameter algorithm to report an IC50.

[5] = system: HSV-1 Strain F; assay: Viral qPCR assay, HSV-1 in Vero cells; format: cell-based, Herpes Simplex Virus type 1; details: read-out: HSV1 VERO Cell (EC50)
Method: as §1
as §1, with “gene” for “gene and of the cellular control, PPIA (Thermo Fisher Assay ID=Hs04194521_s1),”, “in” for “in separate”, “Compound effects on viral” for “Viral”, “number” for “numbers were normalized by cellular control copy number, and compound effects”
as §2

[6] = system: HCMV Strain AD169; assay: Viral qPCR assay, HCMV in MRC-5 cells; format: cell-based, Human cytomegalovirus; details: read-out: CMV MRC5 Cell (EC50)
Summary of the method: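 Viral genome copies, quantified by TaqMan qPCR with a plasmid standard curve after ~72 h infection of MRC-5 cells with AD169 at 0.05-0.1 pfu/cell, served as readout; PPIA normalisation used in one format. Compounds run as 10-point 3-fold series, in standard or 50% FBS media; EC50 by 4-parameter fit.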

[7] = system: VZV; assay: Viral qPCR assay, VZV in MRC5 cells; format: cell-based, varicella zoster virus; details: read-out: VZV MRC5 Cell (IC50)
Method: as §1
as §1, with “gene” for “gene and of the cellular control, PPIA (Thermo Fisher Assay ID=Hs04194521_s1),”, “in” for “in separate”, “Compound effects on viral” for “Viral”, “number” for “numbers were normalized by cellular control copy number, and compound effects”
as §2

[8] = system: HSV-1 Strain F; assay: Viral qPCR assay, HSV-1 in MRC5 cells; format: cell-based, Herpes Simplex Virus type 1; details: read-out: HSV1 MRC5 Cell (EC50)
Method: as §1
as §1, with “gene” for “gene and of the cellular control, PPIA (Thermo Fisher Assay ID=Hs04194521_s1),”, “in” for “in separate”, “Compound effects on viral” for “Viral”, “number” for “numbers were normalized by cellular control copy number, and compound effects”
as §2

[9] = system: HSV2; assay: Viral qPCR assay, HSV2 in MRC5 cells; format: cell-based, Herpes Simplex Virus type 2; details: read-out: HSV2 MRC5 Cell (EC50)
Method: as §1
as §1, with “gene” for “gene and of the cellular control, PPIA (Thermo Fisher Assay ID=Hs04194521_s1),”, “in” for “in separate”, “Compound effects on viral” for “Viral”, “number” for “numbers were normalized by cellular control copy number, and compound effects”

[10] = Human alphaherpesvirus 3, MRC5, 72 h
[11] = Human alphaherpesvirus 2, Vero, 72 h
[12] = Human alphaherpesvirus 1, MRC5, 72 h
[13] = Human alphaherpesvirus 1, Vero, 72 h
[14] = Human betaherpesvirus 5, AD169, MRC5, 72 h
[15] = Human alphaherpesvirus 2, MRC5, 72 h

T2 sequence (P09252 whole entry): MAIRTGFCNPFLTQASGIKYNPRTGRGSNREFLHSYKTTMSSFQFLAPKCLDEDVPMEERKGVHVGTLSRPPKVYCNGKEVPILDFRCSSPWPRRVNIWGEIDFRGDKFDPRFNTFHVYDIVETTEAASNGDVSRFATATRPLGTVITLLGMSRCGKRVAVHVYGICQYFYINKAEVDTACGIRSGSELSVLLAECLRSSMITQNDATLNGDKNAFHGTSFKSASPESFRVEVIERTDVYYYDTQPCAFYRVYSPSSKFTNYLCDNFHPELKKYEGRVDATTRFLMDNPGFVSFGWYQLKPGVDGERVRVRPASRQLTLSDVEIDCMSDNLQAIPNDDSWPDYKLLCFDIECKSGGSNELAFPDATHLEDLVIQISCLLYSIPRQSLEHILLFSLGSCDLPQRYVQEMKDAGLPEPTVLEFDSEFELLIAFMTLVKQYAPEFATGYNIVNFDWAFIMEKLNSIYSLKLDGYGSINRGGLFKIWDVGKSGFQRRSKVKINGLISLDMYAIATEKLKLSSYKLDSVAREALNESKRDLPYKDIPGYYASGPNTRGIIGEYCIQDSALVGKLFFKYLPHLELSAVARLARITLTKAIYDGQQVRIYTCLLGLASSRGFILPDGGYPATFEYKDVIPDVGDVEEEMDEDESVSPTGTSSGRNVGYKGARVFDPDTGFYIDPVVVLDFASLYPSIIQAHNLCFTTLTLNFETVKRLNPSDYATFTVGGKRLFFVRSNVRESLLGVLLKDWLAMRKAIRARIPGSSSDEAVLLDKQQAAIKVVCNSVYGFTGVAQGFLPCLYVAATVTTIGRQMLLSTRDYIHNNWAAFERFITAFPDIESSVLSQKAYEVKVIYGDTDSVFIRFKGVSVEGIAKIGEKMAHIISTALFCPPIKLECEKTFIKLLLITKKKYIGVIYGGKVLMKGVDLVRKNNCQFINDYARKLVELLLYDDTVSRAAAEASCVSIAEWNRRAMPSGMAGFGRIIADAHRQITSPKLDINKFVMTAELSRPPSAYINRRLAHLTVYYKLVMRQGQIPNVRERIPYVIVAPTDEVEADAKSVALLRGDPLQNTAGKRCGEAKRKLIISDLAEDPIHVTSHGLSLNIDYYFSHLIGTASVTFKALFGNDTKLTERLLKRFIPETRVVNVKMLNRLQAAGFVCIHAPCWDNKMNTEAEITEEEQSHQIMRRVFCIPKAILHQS
T1 sequence (P08546 whole entry): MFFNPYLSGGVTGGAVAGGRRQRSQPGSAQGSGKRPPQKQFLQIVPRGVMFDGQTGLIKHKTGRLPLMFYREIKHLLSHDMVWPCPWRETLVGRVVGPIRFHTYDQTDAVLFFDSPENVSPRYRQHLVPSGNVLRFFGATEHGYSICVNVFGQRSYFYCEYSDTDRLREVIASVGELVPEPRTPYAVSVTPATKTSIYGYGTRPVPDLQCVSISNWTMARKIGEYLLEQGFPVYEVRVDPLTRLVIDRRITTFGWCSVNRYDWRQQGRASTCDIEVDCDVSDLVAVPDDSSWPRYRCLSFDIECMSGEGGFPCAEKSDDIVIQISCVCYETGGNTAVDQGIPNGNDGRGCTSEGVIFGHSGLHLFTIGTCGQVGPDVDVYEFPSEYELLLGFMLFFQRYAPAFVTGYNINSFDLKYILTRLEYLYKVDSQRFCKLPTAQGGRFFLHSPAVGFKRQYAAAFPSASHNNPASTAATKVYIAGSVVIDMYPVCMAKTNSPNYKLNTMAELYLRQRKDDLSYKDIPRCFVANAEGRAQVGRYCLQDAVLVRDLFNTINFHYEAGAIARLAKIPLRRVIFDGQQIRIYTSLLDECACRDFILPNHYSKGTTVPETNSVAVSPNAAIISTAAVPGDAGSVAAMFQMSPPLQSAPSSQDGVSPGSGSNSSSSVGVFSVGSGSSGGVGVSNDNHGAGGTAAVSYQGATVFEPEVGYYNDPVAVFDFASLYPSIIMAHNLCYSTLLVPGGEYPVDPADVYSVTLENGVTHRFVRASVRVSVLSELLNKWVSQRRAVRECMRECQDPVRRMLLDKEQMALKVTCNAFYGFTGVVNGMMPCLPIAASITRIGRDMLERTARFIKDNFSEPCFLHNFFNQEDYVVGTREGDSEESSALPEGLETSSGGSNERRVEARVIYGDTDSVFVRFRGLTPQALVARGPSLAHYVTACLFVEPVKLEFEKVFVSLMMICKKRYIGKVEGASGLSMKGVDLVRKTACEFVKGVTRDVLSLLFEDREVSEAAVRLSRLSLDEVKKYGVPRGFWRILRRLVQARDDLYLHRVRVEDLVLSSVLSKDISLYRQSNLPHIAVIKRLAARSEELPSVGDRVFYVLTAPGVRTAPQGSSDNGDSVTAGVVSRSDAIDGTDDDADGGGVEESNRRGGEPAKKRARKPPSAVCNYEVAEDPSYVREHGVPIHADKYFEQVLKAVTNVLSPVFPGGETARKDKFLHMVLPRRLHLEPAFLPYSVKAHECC

SMILES	IC50 [1]	IC50 [2]	EC50 ([3]; ~72 hrs)	IC50 [4]	EC50 ([5]; ~72 hrs)	EC50 ([6]; MRC5 cells, ~72 hrs)	IC50 [7, 10]	EC50 [3, 11]	EC50 [8, 12]	EC50 [5, 13]	EC50 [6, 14]	EC50 [9, 15]	IC50 ([7]; ~72 hrs)	EC50 ([8]; ~72 hrs)	EC50 ([9]; ~72 hrs)
O=C1CC[C@@H](CN2Cc3c(C(=O)NCc4ccc(Cl)cc4)nn(C4CCC(F)(F)C4)c3C2)N1 (single isomer, unassigned) [Compound 55]	94.1 nM	478 nM	13100 nM	26.9 nM	5600 nM	2710 nM									
Cn1nc(C(=O)NCc2ccc(Cl)cc2)c2c1CN(C[C@H]1CCC(=O)N1)C2 [Compound 32]	14.1 nM			5.68 nM			418 nM	165 nM	653 nM	381 nM	420 nM	500 nM			
O=C1CC[C@@H](CN2Cc3c(C(=O)NCc4ccc(Cl)cc4)nn(C(F)F)c3C2)N1 [Compound 46]	69.7 nM		530 nM	23 nM	211 nM	706 nM									
[2H]C([2H])([2H])n1nc(C(=O)NCc2ccc(Cl)cc2)c2c1CN(C[C@H]1CCC(=O)N1)C2 [Compound 59]	70.6 nM			48.6 nM			5210 nM	3540 nM	7100 nM	1370 nM	714 nM	3180 nM			
Cn1nc(C(=O)NCc2ccc(Cl)cc2F)c2c1CN(C[C@H]1CCC(=O)N1)C2 [Compound 61]	346 nM			192 nM				37700 nM		30800 nM	1980 nM				
CC(C1CC(F)C(=O)N1)N1Cc2c(C(=O)NCc3ccc(Cl)cc3)nn(C)c2C1 (stereo not drawn) [Compound 76]	30 nM		1590 nM	36.1 nM	1410 nM	3610 nM									
Cn1nc(C(=O)NCc2ccc(Cl)cc2)c2c1CN(C[C@@H]1CC(F)C(=O)N1)C2 (stereo partly drawn) [Compound 80]	168 nM		2310 nM	102 nM	1930 nM	2780 nM							3890 nM	4000 nM	2830 nM
CC(C1CC(F)(F)C(=O)N1)N1Cc2c(C(=O)NCc3ccc(Cl)cc3)nn(C)c2C1 (stereo not drawn) [Compound 86]	18.2 nM		2360 nM	37 nM	1710 nM	616 nM									
CC(C)[C@H]1c2c(c(C(=O)NCc3ccc(Cl)cc3)nn2C)CN1C[C@@H]1CCC(=O)N1 [Compound 100]	7.62 nM			4.84 nM				196 nM		217 nM	222 nM				
C[C@@H]1c2c(C(=O)NCc3ccc(Cl)cc3)nn(C)c2CN1C[C@H]1CCC(=O)N1 [Compound 126]	522 nM		1960 nM	159 nM	1190 nM	6110 nM									
O=C1CCC(CC2Cc3c(C(=O)NCc4ccc(Cl)cc4)nn(CCN4CC(F)(F)C4)c3C2)N1 (stereo not drawn) [Compound 131]	16.8 nM			11.7 nM				7020 nM		7280 nM	1580 nM				
O=C1CC[C@H](CC2Cc3c(C(=O)NCc4ccc(Cl)cc4)nn(CCN4CC(F)C4)c3C2)N1 (stereo partly drawn) [Compound 132]	21.6 nM			12.8 nM				9330 nM		7160 nM	2930 nM				
O=C1CC[C@H](CC2Cc3c(C(=O)NCc4ccc(Cl)cc4)nn(CCN4CCOCC4)c3C2)N1 (stereo partly drawn) [Compound 133]	85.8 nM			19.7 nM			1210 nM	1060 nM	1190 nM	1620 nM	805 nM	557 nM			
CC(C)N1CC(n2nc(C(=O)NCc3ccc(Cl)cc3)c3c2CC(C[C@H]2CCC(=O)N2)C3)C1 (stereo partly drawn) [Compound 134]	87.4 nM		584 nM	14.9 nM	991 nM	970 nM							832 nM	1170 nM	545 nM
CC(C)CN1CC(n2nc(C(=O)NCc3ccc(Cl)cc3)c3c2CC(C[C@H]2CCC(=O)N2)C3)C1 (stereo partly drawn) [Compound 135]	89.3 nM			26.1 nM			633 nM	1970 nM	749 nM	1520 nM	769 nM	589 nM			
CN1CC(n2nc(C(=O)NCc3ccc(Cl)cc3)c3c2CC(C[C@H]2CCC(=O)N2)C3)C1 (stereo partly drawn) [Compound 137]	174 nM			50 nM				55700 nM		26100 nM	7730 nM				
